In patent publication EP0216028A2, “Use of anthranilic-acid derivatives as anthelmintic medicaments” (HOECHST AKTIENGESELLSCHAFT, priority 1985, dated 1987):
Where two headings read alike, the source gives them in different places.

Assays:
[1] = system: Magen-Darm-Würmer(Ostertagia, Haemonchur, Trichostrongylus, Cooperia, jeweils verschiedene Spezies); assay: Chemotherapeutic test in sheep infected with gastrointestinal worms (egg count reduction / worm burden); type: in vivo; details: Tabelle 2, Wirtstier: Schaf; for Chemotherapeut. Index: quotient of Dosis tolerata maxima and Dosis curativa minima; for minimal effective dose: Trichostrongylus, read-out: Dosis (>90% Reduktion der Wurmbürde)
Source text: (§1) Zur Feststellung der anthelminthischen Wirkung der Verbindungen der Formel I wurden chemotherapeutische Untersuchungen an ca. 25-30 kg schweren Schaflämmern ausgeführt, die entweder mit Metazerkarien von Fasciola hepatica oder mit Larven von Magen-Darm-Strongyliden, vornehmlich Haemonchus contortus und Trichostongylus colubriformis, oral infiziert worden waren. Nach Ablauf der Präpatenzperiode (Zeit zwischen Infektion und Geschlechtsreife der Parasiten mit beginnender Ausscheidung von Eiern oder Larven) wurde der Parasitenbefall durch Kotuntersuchungen gesichert. […] Unmittelbar danach wurde die Behandlung der Schafe (im allgemeinen 3 - 4 Tiere pro Wirkstoff, mindestens aber 2) vorgenommen. Den Tieren wurde oral oder parenteral eine Suspension von unterschiedlicher Wirkstoffmenge in jeweils 10 ml einer 1%igen Carboxymethylcellulose-Suspension appliziert. Jeweils am 7., 14. und 28. Tag nach der Behandlung wurde wiederum nach den vorstehend angegebenen Verfahren die Eizahl pro Gramm Kot ermittelt und ihre prozentuale Abnahme im Vergleich zum Ausgangswert vor der Behandlung errechnet. Mit einigen Verbindungen wurden außerdem beim Fasciola-Befall noch eine zusätzliche Prüftechnik angewandt: Nach Abschluß der Präpatenzperiode wurde bei Fasciola-positiven Schafen ein künstlicher Gallengang geschaffen, der am Ausgang der Gallenblase ein Sieb enthielt, so daß die nach der Behandlung abgetöteten Leberegel in der Gallenblase aufgefangen werden konnten. Vier bis sieben Tage nach der Behandlung wurden die so operierten und dann behandelten Schafe getötet, die abgetöteten Leberegel in der Gallenblase sowie noch eventuell in der Leber vorhandene lebende Leberegel gezählt und von der gesamten Wurmbürde der Prozentsatz der abgetöteten Parasiten berechnet.
(§2) Der chemotherapeutische Index gibt den Quotienten aus Do- sis tolerata maxima und Dosis curativa minima an.

[2] = system: Leberegel (Fasciola hepatica); assay: Chemotherapeutic test in sheep infected with liver fluke (egg count reduction / worm burden); type: in vivo; details: Wirtstier: Schaf, p.o.; for minimal effective dose: Fasciola hepatica, po, read-out: Dosis (>90% Reduktion der Wurmbürde); for Chemotherapeut. Index: quotient of Dosis tolerata maxima and Dosis curativa minima
Source text: as §1, §2

[3] = Tabelle 1, minimum curative dose
[4] = Tabelle 3 (comparison of isomers)

Row | SMILES | Chemotherapeut. Index ([1]; p.o.) | minimal effective dose ([1]; po, p.o.) [mg/kg] | minimal effective dose [2, 3] [mg/kg] | Chemotherapeut. Index ([2]; Tabelle 1) | further results
1 | O=C(Nc1ccc(Cl)cc1)c1cc(Cl)ccc1NS(=O)(=O)c1ccc(F)cc1 [Verbindung 22, 5-Chlor-2-[(4-fluor-phenylsulfonyl)-amino]-benzoesäure-(4-chloranilid)] | 5 | 10 | – | – | –
2 | O=[N+]([O-])c1cc(Cl)cc(-c2cc(Cl)cc([N+](=O)[O-])c2O)c1O [Niclofolan, 5,5'-Dichlor-2-2'-dihydroxy-3,3'-dinitro-biphenyl, reference compound] | – | – | 3 | 3 | Dosis (>90% Reduktion der Wurmbürde) ([1]; result in words, route not printed (oral bzw. subkutan)): keine Wirkung
3 | O=C(Nc1ccc(F)cc1)c1cc(Cl)ccc1NS(=O)(=O)c1ccc(Cl)cc1 [Verbindung 4] | – | – | 2.5 | 20 | Dosis (>90% Reduktion der Wurmbürde) [2, 4]: 2,5 mg/kg Körpergewicht; Chemotherapeut. Index [2, 4]: 20
4 | O=C(Nc1ccc(C(F)(F)F)cc1)c1cc(Cl)ccc1NS(=O)(=O)c1ccc(Cl)c(Cl)c1 [Verbindung 34, 5-Chlor-2-[(3,4-dichlor-phenylsulfonyl)-amino]-benzoesäure-(4-trifluormethyl-anilid)] | – | – | 2.5 | 20 | –
5 | CCCCCCCCCCCCN(C)C(=O)c1cc(Cl)ccc1NS(=O)(=O)c1ccc(Cl)c(Cl)c1 [Verbindung 33, 5-Chlor-2-[(3,4-dichlor-phenylsulfonyl)-amino]-benzoesäure-(N-methyl-dodecylamid)] | – | – | – | – | Chemotherapeut. Index ([1]; s.c.): über 6; minimal effective dose ([1]; sc, s.c.): 5 mg/kg
6 | CCCCCCCCCCCCNC(=O)c1cc(Cl)cc(Cl)c1NS(=O)(=O)c1ccc(Cl)cc1 [Verbindung 16] | 10 | 5 | – | – | –
7 | O=C(Nc1ccc(Cl)c(Cl)c1)c1ccc(Cl)cc1NS(=O)(=O)c1ccc(Cl)cc1 [V6, 4-Chlor-2-[(4-chlor-phenylsulfonyl)-amino]-benzoesäure-(3,4-dichlor-anilid), reference compound] | – | – | – | – | minimal effective dose [2, 4]: 30 mg/kg; Chemotherapeut. Index [2, 4]: 2
8 | O=C(Nc1ccc(Cl)c(Cl)c1)c1cc(Cl)ccc1NS(=O)(=O)c1ccc(Cl)cc1 [Verbindung 3, 5-Chlor-2-t(4-chlor-phenylsulfonyl)-aminoJ-benzoesäure-(3,4-dichloranilid)] | – | – | 5 | 10 | minimal effective dose [2, 4]: 5 mg/kg; Chemotherapeut. Index [2, 4]: 10
9 | O=C(Nc1ccc(Cl)c(Cl)c1)c1ccc(NS(=O)(=O)c2ccc(Cl)cc2)cc1Cl [V10, reference compound] | – | – | – | – | minimal effective dose [2, 4]: 10 mg/kg; Chemotherapeut. Index [2, 4]: 5
10 | CN(c1ccc(Cl)cc1C(=O)Nc1ccc(Cl)cc1)S(=O)(=O)c1ccc(Cl)c(Cl)c1 [Verbindung 30, 5-Chlor-2-[(3,4-dichlor-phenylsulfonyl)-methylamino]-benzoesäure-(4-chlor-anilid)] | – | – | 5 | 10 | –
11 | O=C(Nc1ccc(Cl)cc1)c1cc(Br)ccc1NS(=O)(=O)c1ccc(Cl)cc1 [Verbindung 9, 5-Brom-2-[(4-chlor-phenylsulfonyl)-amino]-benzoesäure-(4-chlor-anilid)] | – | – | 5 | 10 | minimal effective dose [2, 4]: 2.5 mg/kg; Chemotherapeut. Index [2, 4]: 20
12 | O=C(Nc1ccc(Cl)cc1)c1ccc(NS(=O)(=O)c2ccc(Cl)cc2)cc1Br [V8, reference compound] | – | – | – | – | minimal effective dose [2, 4]: 30 mg/kg; Chemotherapeut. Index [2, 4]: 2
13 | O=C(Nc1ccc(F)cc1)c1cc(Cl)cc(Cl)c1NS(=O)(=O)c1ccc(Cl)cc1 [Verbindung 14, 3,5-Dichlor-2-[(4-chlor-phenylsulfonyl)-amino]-benzoesäure-(4-fluor-anilid)] | – | – | 7.5 | 5 | –
14 | CN(C(=O)c1cc(Cl)ccc1NS(=O)(=O)c1ccc(Cl)cc1)c1ccc(Cl)cc1 [Verbindung 6] | 5 | 10 | – | – | –
15 | CCN(C(=O)c1cc(Cl)ccc1N(C)S(=O)(=O)c1ccc(Cl)c(Cl)c1)c1ccc(Cl)cc1 [Verbindung 42] | 10 | 5 | 2.5 | 20 | –
16 | O=C(Nc1ccc(Oc2ccc(Cl)cc2)c(Cl)c1)c1cc(I)cc(I)c1O [Rafoxanide, 3'-Chlor-4'-(p-chlor-phenoxy)-3,5-dijod-salicylanilid, reference compound] | 6 | 7.5 | 7.5 | 6 | –
17 | O=C(Nc1ccc(Cl)cc1)c1cc(Cl)cc(Cl)c1NS(=O)(=O)c1ccc(Cl)cc1 [Verbindung 13, 3,5-Dichlor-2-[(4-chlor-phenylsulfonyl)-amino]-benzoesäure-(4-chlor-anilid)] | 5 | 10 | 5 | 10 | –
18 | O=C(Nc1ccc(Cl)cc1Cl)c1cc(Cl)ccc1NS(=O)(=O)c1ccc(Cl)cc1 [Verbindung 2, 5-Chlor-2-[(4-chlor-phenylsulfonyl)-amino]-benzoesäure-(2,4-dichlor-anilid)] | – | – | 7.5 | 8 | –
19 | O=C(Nc1ccc(Br)cc1)c1cc(Cl)ccc1NS(=O)(=O)c1ccc(Br)cc1 [Verbindung 21] | – | – | – | – | Chemotherapeut. Index ([1]; s.c.): über 6; minimal effective dose ([1]; sc, s.c.): 5 mg/kg
20 | CCS(=O)(=O)c1ccc(NS(=O)(=O)c2ccc(Cl)c(Cl)c2)c(C(=O)Nc2ccc(Cl)cc2)c1 [Verbindung 40] | – | – | 5 | 10 | –
21 | CCCCCCCCCCCCNC(=O)c1cc(Cl)ccc1NS(=O)(=O)c1ccc(Cl)cc1 [Verbindung 17, 5-Chlor-2-[(4-chlor-phenylsulfonyl)-amino]-benzoesäure-dodecylamid] | – | – | 2.5 | 20 | –
22 | O=C(Nc1ccc(Cl)cc1)c1cc([N+](=O)[O-])ccc1NS(=O)(=O)c1ccc(Cl)c(Cl)c1 [Verbindung 38, 2-[(3,4-Dichlor-phenylsulfönyl)-amino]-5-nitrobenzoesäure-(4-chlor-anilid)] | 6 | 7.5 | – | – | –
23 | O=C(Nc1ccc(Cl)cc1)c1cc(Cl)ccc1NS(=O)(=O)c1ccc(Cl)cc1 [Verbindung 1] | – | – | 1.5 | über 25 | minimal effective dose [2, 4]: 1.5 mg/kg; Chemotherapeut. Index [2, 4]: über 25
24 | O=C(Nc1ccc(Cl)cc1)c1cc(Cl)ccc1NS(=O)(=O)c1ccc(Br)cc1 [Verbindung 20, 5-Chlor-2-[(4-brom-phenylsulfonyl)-amino]-benzoesäure-(4-chlor-anilid)] | 5 | 10 | 2.5 | 20 | –
25 | O=C(Nc1ccc(OC(F)(F)F)cc1)c1cc(Cl)ccc1NS(=O)(=O)c1ccc(Cl)c(Cl)c1 [Verbindung 35, 5-Chlor-2-[(3,4-dichlorphenylsulfonyl)-amino]-benzoesäure-(4-trifluormethoxy-anilid)] | 5 | 10 | 2.5 | 20 | –
